Measured values: patent US4992257A, “Dihydroporphyrins and method of treating tumors” (Efamol Holdings PLC, priority 1988, dated 1991)

Legend:
[1] = tested on: PC6 plasma cell tumour; assay: Tumour photo-necrosis: depth of tumour necrosis after sensitiser injection and 10 J cm^-2 light; assay type: in vivo, female BALB/c mice; conditions: mean ± SE
Description: (§1) the method of testing is that the PC6 plasma cell tumour, obtained initially from the Chester Beatty Research Institute, was grown by inoculating 0.3-0.6×10^6 cells subcutaneously in female BALB/c mice. It was used about two weeks later, when it was […] in its longest diameter and […] deep. Sensitisers were injected in dimethyl sulphoxide intra-peritoneally (2.5 ul g^-1) and, twenty four hours later, skin over the tumours was depilated, the mice anaesthetised and tumours exposed to 10 J cm^-2 light. Wavelengths for illumination were the longest wavelength absorption peaks in the red in solutions of sensitiser in fetal calf serum, and were 652-653 nm for the compounds of Examples 1 to 3 and 741 nm for the compound of Example 4. The light source was a copper vapour laser with an output of 10 to 12 watts (Cu 10 laser, Oxford Lasers Ltd) pumping a D2 10K dye laser (Oxford Lasers Ltd). The dye was rhodamine 640 (Applied Photophysics Ltd) for illumination at 652-653 nm and LDS-722 for illumination at 741 nm. Light intensity at the tumour surface was kept below 0.3 W cm^-2, where thermal effects were undetectable.
Twenty four hours after illumination […], 0.2 ml 1% Evans blue (Sigma) in saline was given intravenously and tumours were removed one hour later and fixed in formolsaline. The fixed tumours were sliced at right angles to the surface and the depth of necrosis measured with a dissecting microscope fitted with an eye piece graticule.

[2] = tested on: Tumour; assay: Degree of tumour necrosis obtained at an equivalent muscle damage level; assay type: in vivo; conditions: for tumour necrosis for specified levels of muscle damage, in words: versus corresponding compounds of EP-A-0,186,962
Excerpt: (§2) In preliminary tests the new compounds have shown similar results as regards skin sensitivity to those given in EP-A-0,186,962. Moreover, the para and meta dihydroxy compounds have been shown specifically, improved properties in other respects which may be expected in all the compounds.

[3] = Muscle oedema (muscle damage) for specified depths of tumour necrosis; assay type: in vivo; conditions: for muscle damage for specified levels of tumour necrosis, in words: versus corresponding compounds of EP-A-0,186,962
Excerpt: as §2

[4] = Longest wavelength absorption peak in the red in fetal calf serum; assay type: physicochemical; conditions: in solutions of sensitiser in fetal calf serum
Description: as §1

[5] = at muscle oedema 10% increase in muscle weight
[6] = at muscle oedema 20% increase in muscle weight
[7] = at depth of tumour necrosis 3.0 mm
[8] = at depth of tumour necrosis 3.5 mm
[9] = at depth of tumour necrosis 4.0 mm
[10] = at depth of tumour necrosis 5.0 mm
[11] = at depth of tumour necrosis 5.5 mm

SMILES	Tumour Necrosis [2, 5]	Tumour Necrosis [2, 6] [mm]	tumour necrosis for specified levels of muscle damage, in words [2]	Muscle Oedema (% Increase in Weight) [3, 7] [%]	Muscle Oedema (% Increase in Weight) [3, 8] [%]	muscle damage for specified levels of tumour necrosis, in words [3]	Muscle Oedema (% Increase in Weight) [3, 9] [%]	Muscle Oedema (% Increase in Weight) [3, 10] [%]	Muscle Oedema (% Increase in Weight) [3, 11] [%]	further results
Oc1ccc(-c2c3nc(c(-c4ccc(O)cc4)c4ccc([nH]4)c(-c4ccc(O)cc4)c4nc(c(-c5ccc(O)cc5)c5ccc2[nH]5)CC4)C=C3)cc1 [Example 1, 2,3-dihydro-5,10,15,20-tetra(p-hydroxyphenyl) porphyrin]	3.5 mm	~4.0	more tumour necrosis than the corresponding compounds of EP-A-0,186,962	8	10	considerably less muscle damage than the corresponding compounds of EP-A-0,186,962	–	–	–	Depth of Tumour Necrosis ([1]; dose 3.125 μM/Kg i.p., 653 nm): 2.13 ± 0.50 mm; Depth of Tumour Necrosis ([1]; dose 6.25 μM/Kg i.p., 653 nm): 3.50 ± 0.54 mm
Oc1cccc(-c2c3nc(c(-c4cccc(O)c4)c4ccc([nH]4)c(-c4cccc(O)c4)c4nc(c(-c5cccc(O)c5)c5[nH]c2CC5)C=C4)C=C3)c1 [Example 2, 2,3-dihydro-5,10,15,20-tetra(m-hydroxyphenyl) porphyrin]	5.5-6 mm	6.5	more tumour necrosis than the corresponding compounds of EP-A-0,186,962	–	2	considerably less muscle damage than the corresponding compounds of EP-A-0,186,962	3	5	7	Depth of Tumour Necrosis ([1]; dose 0.375 μM/Kg i.p., 652 nm): 3.79 ± 0.28 mm; Depth of Tumour Necrosis ([1]; dose 0.75 μM/Kg i.p., 652 nm): 5.41 ± 0.39 mm
Oc1ccccc1-c1c2nc(c(-c3ccccc3O)c3ccc([nH]3)c(-c3ccccc3O)c3nc(c(-c4ccccc4O)c4[nH]c1CC4)C=C3)C=C2 [Example 3, 2,3-dihydro-5,10,15,20-tetra (o-hydroxyphenyl) porphyrin]	–	–	–	–	–	–	–	–	–	Depth of Tumour Necrosis ([1]; dose 3.125 μM/Kg i.p., 652 nm): 3.69 ± 0.74 mm; Depth of Tumour Necrosis ([1]; dose 6.25 μM/Kg i.p., 652 nm): 4.16 ± 0.27 mm
Oc1cccc(-c2c3nc(c(-c4cccc(O)c4)c4ccc([nH]4)c(-c4cccc(O)c4)c4nc(c(-c5cccc(O)c5)c5ccc2[nH]5)CC4)CC3)c1 [Example 4, 7,8,17,18-tetrahydro-5,10,15,20-tetra(m-hydroxyphenyl) porphyrin]	–	–	–	–	–	–	–	–	–	Depth of Tumour Necrosis ([1]; dose 0.39 μM/Kg i.p., 741 nm): 5.22 ± 1.21 mm; longest wavelength absorption peak in the red [4]: 741 nm
Oc1cccc(-c2c3nc(c(-c4cccc(O)c4)c4ccc([nH]4)c(-c4cccc(O)c4)c4nc(c(-c5cccc(O)c5)c5ccc2[nH]5)C=C4)C=C3)c1 [Meta (Compounds of EP-A-0186962), 5,10,15,20-tetra(m-hydroxyphenyl) porphyrin, reference compound]	3.5 mm	4.0	–	–	10	–	20	36	49	–
Oc1ccc(-c2c3nc(c(-c4ccc(O)cc4)c4ccc([nH]4)c(-c4ccc(O)cc4)c4nc(c(-c5ccc(O)cc5)c5ccc2[nH]5)C=C4)C=C3)cc1 [Para (Compounds of EP-A-0186962), 5,10,15,20-Tetra(p-hydroxyphenyl)porphyrin, reference compound]	2.25 mm	3.0	–	20	22	–	–	–	–	–
